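Test compounds were applied to cells in 96-well plates for 48 hours at 5 doses. GI50 is the concentration that inhibits growth by half. TGI denotes the concentration required for complete inhibition of growth.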
Legend:
Assay in all cases: DTP human tumour cell line panel, 48 h
MOLT-4 leukemia = tested on: MOLT-4 leukemia
SF-295 CNS = tested on: SF-295 CNS
SW-620 colon = tested on: SW-620 colon
HT29 colon = tested on: HT29 colon
DU-145 prostate = tested on: DU-145 prostate
OVCAR-4 ovarian = tested on: OVCAR-4 ovarian
COLO 205 colon = tested on: COLO 205 colon
NCI-H460 lung = tested on: NCI-H460 lung

Row | SMILES | TGI (MOLT-4 leukemia) [µM] | TGI (SF-295 CNS) [µM] | TGI (SW-620 colon) [µM] | TGI (HT29 colon) [µM] | TGI (DU-145 prostate) [µM] | TGI (OVCAR-4 ovarian) [µM] | TGI (COLO 205 colon) [µM] | TGI (NCI-H460 lung) [µM] | GI50 (MOLT-4 leukemia) [µM] | GI50 (SF-295 CNS) [µM] | GI50 (SW-620 colon) [µM] | GI50 (HT29 colon) [µM] | GI50 (DU-145 prostate) [µM] | GI50 (OVCAR-4 ovarian) [µM] | GI50 (COLO 205 colon) [µM] | GI50 (NCI-H460 lung) [µM]
1 | N#C/C(=C1/c2cc([N+](=O)[O-])ccc2-c2c1cc([N+](=O)[O-])cc2[N+](=O)[O-])N1CCCCC1 | > 100 | > 100 | > 100 | > 100 | > 100 | 69.7 | > 100 |  |  |  |  |  |  |  |  | 
2 | O=C(O)CCSC1=NCCN1 |  | > 100 | > 100 | > 100 | > 100 | > 100 | > 100 | > 100 |  |  |  |  |  |  |  | 
3 | NC(=S)NNC(=S)NC(=O)c1ccco1 | > 10 |  | > 10 | > 10 | > 10 | > 10 |  | > 10 |  |  |  |  |  |  |  | 
4 | CC1=NN2C(=N)/C(=C/c3ccccc3)C(=O)N=C2S1 | > 100 | > 100 | > 100 | > 100 | > 100 | > 100 | > 100 | > 100 |  |  |  |  |  |  |  | 
5 | COC(=O)[C@](C)(Cc1ccccc1)NC(=O)[C@@H](C)N1[C@@H](c2ccccc2)COC1(C)C | > 100 | > 100 | > 100 | > 100 |  | > 100 | 52.2 | > 100 |  |  |  |  |  |  |  | 
6 | C=CC(OC(C)=O)c1ccc(OC(C)=O)cc1 (stereo not given) | > 44 | 22.1 |  | 32.7 | 27.1 | 37.5 | 12.9 | 37.1 |  |  |  |  |  |  |  | 
7 | COc1cc2c(cc1O)CCN(C)[C@H]2Cc1ccc(Oc2c(O)c(OC)cc3c2C[C@H]2c4c(c(OC)c(OC)c(OC)c4-3)CCN2C)cc1 | 11 | 11.3 | 10 | 7.35 | 11.5 | 4.38 | 12.7 | 7.65 |  |  |  |  |  |  |  | 
8 | O=c1c2cc(Br)ccc2ncn1COCc1ccccc1 | > 100 | > 100 | > 100 | > 1 | > 100 | > 100 | > 100 |  |  |  |  |  |  |  |  | 
9 | Cc1cc2nc(-c3c(N)ncc(C#N)c3-c3ccc(Cl)cc3)[nH]c2cc1C | > 100 | 27.5 | > 100 | > 100 | 27.1 | 25.4 | 83.4 | > 100 | > 100 | 10 | 32.4 | 6.06 | 5.68 | 4.4 | 6.24 | 30.4
10 | COC(=O)[C@@H]1C=C[C@H](NC(C)=O)C1 | > 100 | > 100 | > 100 | > 100 | > 100 | > 100 | > 100 | > 100 |  |  |  |  |  |  |  | 
11 | O=[N+]([O-])c1ccc2nc(/C=C(\O)c3ccc(Cl)cc3)c(/C=C(\O)c3ccc(Cl)cc3)nc2c1 | > 100 | > 100 |  | > 100 | > 100 | > 100 | > 100 | > 100 |  |  |  |  |  |  |  | 
12 | COc1cc2oc(-c3ccc4c(c3)OCO4)c(OC)c(=O)c2c(O)c1OC | > 50 | > 50 | > 50 | > 50 | > 50 | > 50 | > 50 | > 50 |  |  |  |  |  |  |  | 
13 | C=CCOC1(CC=C)C(=O)OC2C(O)COC21O (stereo not given) | > 100 | > 100 | > 100 | > 100 | > 100 | > 100 | > 100 | > 100 |  |  |  |  |  |  |  | 
14 | CC(C)(C)C(=O)N1CCN(C=O)C1=S | > 100 | > 100 | > 100 | > 100 | > 100 | > 100 | > 100 | > 100 |  |  |  |  |  |  |  | 
15 | CC(C)(CN1CCCCC1)C(/C=C/c1ccccc1)=N\NC(=O)N/N=C(/C=C/c1ccccc1)C(C)(C)CN1CCCCC1 | 4.02 | 3.09 | 3.13 | 2.53 |  | 14.1 | 2.81 | 2.67 |  |  |  |  |  |  |  | 
16 | COc1ccc(OC)c(C[P+](c2ccccc2)(c2ccccc2)c2ccccc2)c1 | > 35.3 | > 75.9 | > 100 | 11.8 | > 79.4 | > 48.8 | 2.76 | > 100 |  |  |  |  |  |  |  | 
17 | Nn1c(Sc2nc3ccccc3c(=O)n2N)nc2ccccc2c1=O | 3.69 | 42.1 | 7.13 | 14.3 | 56.8 | > 100 | 28.8 | 51.7 |  |  |  |  |  |  |  | 
18 | CC(=Nc1cc(Cl)cc(Cl)c1)c1ccncc1 | > 100 | > 100 | > 100 | > 100 | > 100 | > 100 | > 100 | > 100 |  |  |  |  |  |  |  | 
19 | C/C(=N/NC(=S)N1CCN(C(=S)N/N=C(/C)c2ccccn2)CC1)c1ccccn1 | > 100 | > 100 | > 100 | > 100 | > 95.5 | > 100 | > 100 | > 100 |  |  |  |  |  |  |  | 
20 | CC1CN=C(c2ccc(CN3CCC(C4CCN(Cc5ccc(C6=NCC(C)N6)cc5)CC4)CC3)cc2)N1 (stereo not given) | 46.5 | 43.2 | 43.1 | 42.7 | 30.6 | 38.8 | 41.3 | 37.3 |  |  |  |  |  |  |  | 
21 | Cc1ccc(NC2=N/C(=C/c3ccco3)C(Cl)=N2)cc1 | > 100 | > 100 | > 100 | > 100 | > 100 | > 100 | > 100 | > 100 |  |  |  |  |  |  |  | 
22 | N#C/C(C(=O)Nc1ccccc1)=C(/N)N1CCCCC1 | > 100 | > 100 | > 100 | > 100 | > 100 |  | > 100 | > 100 |  |  |  |  |  |  |  | 
23 | Cc1nc(Nc2nc3ccccc3[nH]2)nc(Cl)c1CCCl | > 100 |  | > 100 | > 100 | > 100 | > 100 | > 100 | > 100 |  |  |  |  |  |  |  | 
24 | O=[N+]([O-])c1ccc2c(c1)n1c(N3CCCC3)[n+]3ccccc3c1c1c3cccc[n+]3c(N3CCCC3)n21 | > 100 | > 100 | > 100 |  | > 100 | > 100 | > 100 | > 100 |  |  |  |  |  |  |  | 
25 | COc1cc2oc(=O)cc(C)c2c(OC)c1OC(C)=O | > 100 | > 100 | > 100 | > 100 | > 100 | > 100 | > 100 |  |  |  |  |  |  |  |  | 

— PubChem BioAssay (NCI)
